Reference: publication PMC6934184, “Selective DNA-PKcs inhibition extends the therapeutic index of localized radiotherapy and chemotherapy” (The Journal of Clinical Investigation, 2019)

Target: T1, RPS6KB1 (p70S6K) (Homo sapiens, UniProt P23443)
T1 construct: purchased Thermo Fisher Scientific (Life Technologies) SelectScreen
Experiment: SelectScreen Z'LYTE
Assay type: biochemical
In short: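 NU5455 was profiled across the SelectScreen Broad panel of kinase activity and binding assays. Z'LYTE reactions such as CSF1R ran at apparent Km ATP, while the Adapta CAMK1 assay used ATP listed as 10. Values are given as percent.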

T1 sequence (P23443 whole entry): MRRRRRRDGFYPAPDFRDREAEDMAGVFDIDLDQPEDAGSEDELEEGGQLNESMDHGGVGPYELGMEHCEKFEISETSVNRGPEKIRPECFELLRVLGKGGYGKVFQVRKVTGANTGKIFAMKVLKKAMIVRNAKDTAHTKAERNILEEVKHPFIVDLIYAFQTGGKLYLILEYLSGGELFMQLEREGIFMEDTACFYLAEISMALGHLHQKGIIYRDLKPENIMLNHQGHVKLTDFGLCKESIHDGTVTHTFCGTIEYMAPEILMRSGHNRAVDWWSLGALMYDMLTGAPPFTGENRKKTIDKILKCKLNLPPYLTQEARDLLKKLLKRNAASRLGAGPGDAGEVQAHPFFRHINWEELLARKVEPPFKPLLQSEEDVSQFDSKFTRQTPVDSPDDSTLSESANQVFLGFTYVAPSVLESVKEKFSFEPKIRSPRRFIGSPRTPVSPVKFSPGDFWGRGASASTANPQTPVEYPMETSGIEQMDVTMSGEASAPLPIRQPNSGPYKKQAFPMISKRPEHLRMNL

`CN(C(=O)CN1CCOCC1)c1ccc2sc3c(-c4cccc5c(=O)cc(N6CC7CCC(C6)O7)oc45)cccc3c2c1` [NU5455] showed an inhibition at 1 µM of -7.8%.
